Measured values from the supplement of paper PMC10307832.

Legend:
Test in all cases: relative viability (nuclei count vs DMSO), 5 days (fraction); higher = more cells survive
[1] = compound: CC1=CC(=CC=C1)NC2=NC(=CS2)C3=CC=NC=C3 + Cc1nc(NC(=O)N2CCC[C@H]2C(N)=O)sc1-c1ccnc(C(C)(C)C(F)(F)F)c1 [Alpelisib] (partner 2 µM)
Method in brief: (§1)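 One day after seeding in 1536-well plates, lung cancer cell lines were dosed by pin tool. Dosing was either single-drug or a fixed anchor-drug dose plus five library-drug doses (not always all listed) in √10 steps. After 5 days, nuclei were stained in one fix-and-stain step and counted on 4× images, and relative viability is the nuclei count of treated wells over that of vehicle wells, given as the median of duplicate plates.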

[2] = compound: CC1=CC(=CC=C1)NC2=NC(=CS2)C3=CC=NC=C3 + O=C(c1cc(Cc2n[nH]c(=O)c3ccccc23)ccc1F)N1CCN(C(=O)C2CC2)CC1 [Olaparib] (partner 8 µM)
Method in brief: as §1

Masitinib + Bortezomib = compound: Cc1ccc(NC(=O)c2ccc(CN3CCN(C)CC3)cc2)cc1Nc1nc(-c2cccnc2)cs1 [Masitinib] + CC(C)C[C@H](NC(=O)[C@H](Cc1ccccc1)NC(=O)c1cnccn1)B(O)O [Bortezomib] (partner 0.002 µM)
Method in brief: as §1

Masitinib + Linsitinib = compound: Cc1ccc(NC(=O)c2ccc(CN3CCN(C)CC3)cc2)cc1Nc1nc(-c2cccnc2)cs1 [Masitinib] + C[C@]1(O)C[C@@H](c2nc(-c3ccc4ccc(-c5ccccc5)nc4c3)c3c(N)nccn32)C1 [Linsitinib] (partner 1 µM)
Method in brief: as §1

Cell Line	relative viability ([1]; first compound 0.08 µM)	relative viability ([1]; first compound 0.253 µM)	relative viability ([1]; first compound 0.8 µM)	relative viability ([1]; first compound 2.53 µM)	relative viability ([1]; first compound 8 µM)	relative viability ([2]; first compound 0.08 µM)	relative viability ([2]; first compound 0.253 µM)	relative viability ([2]; first compound 0.8 µM)	relative viability ([2]; first compound 2.53 µM)	relative viability ([2]; first compound 8 µM)	relative viability (Masitinib + Bortezomib; first compound 0.01 µM)	relative viability (Masitinib + Bortezomib; first compound 0.03162 µM)	relative viability (Masitinib + Bortezomib; first compound 0.1 µM)	relative viability (Masitinib + Bortezomib; first compound 0.3162 µM)	relative viability (Masitinib + Bortezomib; first compound 1 µM)	relative viability (Masitinib + Linsitinib; first compound 0.01 µM)	relative viability (Masitinib + Linsitinib; first compound 0.03162 µM)	relative viability (Masitinib + Linsitinib; first compound 0.1 µM)	relative viability (Masitinib + Linsitinib; first compound 0.3162 µM)	relative viability (Masitinib + Linsitinib; first compound 1 µM)
HCC-366	0.306	0.215	0.275	0.317	0.209	0.352	0.331	0.261	0.286	0.21	1.04	0.905	1.08	1.01	1.14	0.728	0.521	0.841	0.753	0.55
EMC-BAC-2	0.66	0.747	0.702	0.779	0.719	0.424		0.384	0.366	0.326	0.942	1.04	0.974	1.15	1.05	0.757	0.796	0.867	0.903	0.814
NCI-H3122	0.724	0.794	0.843	1.01	0.923	0.578	0.591	0.548	0.587	0.457	1.09	0.997	1.1	1.03	0.984	1.01	1.01	1.06	0.828	1.1
EPLC-272H	0.894		0.927		0.869	0.79	0.673	0.551	0.687	0.619	0.97	0.85	0.917	1.16	0.839	1.08	1.26	1.19	1.18	1.01
EBC-1	0.644	0.744	0.773	0.809	0.712	0.575	0.417	0.328	0.41	0.451	0.493	0.518	0.514	0.479	0.573	0.685	0.753	1.21	0.857	0.588
NCI-H1975	0.609	0.5	0.553	0.475	0.358	0.747	0.442	0.458	0.395	0.235	0.378	0.319	0.388	0.319	0.373	0.995	0.92	1.03	0.832	0.908
NCI-H647	1.05	0.935	1.11	1.08	0.751	0.477	0.528	0.55	0.523	0.305	1.03	0.768	1.1	1.05	1.09	1.03	1.19	1.03	0.849	1.26
NCI-H441	0.659	0.75	0.73	0.577	0.811	0.564	0.52	0.571	0.688	0.521	0.777	0.451	0.658	0.673	0.448	0.563	0.532	0.501	0.534	0.497
NCI-H1355	0.719	0.512	0.483	0.51	0.587	0.579	0.531	0.444	0.385	0.407	0.949	1.3	1.02	1.02	1.06	0.808	0.697	0.884	0.743	0.801
NCI-H23	0.567	0.677	0.727	0.634	0.738	0.226	0.228	0.22	0.221	0.235	1.06	1.05	1.14	1.03	1.11	0.656	0.58	0.613	0.525	0.493
IA-LM	0.706		0.815	0.533	0.673	0.8	0.779	0.605	0.475	0.714	0.85	0.975	0.836	0.681	1.05	0.365	0.541	0.557	0.504	0.451
NCI-H650	0.929	1.14	1.16		1.11	0.338	0.348	0.392	0.368	0.367	0.82	0.565	0.95	1.08	0.635	0.796	0.752	0.896	0.981	0.806
NCI-H2087	0.931	1.14	0.772	1.29	0.932	0.596	0.503	0.607	0.448	0.462	0.544	0.741	0.756	0.958	0.779	0.936	0.951	0.923	1.01	0.884
NCI-H838	0.91	0.914	0.868	0.863	0.743	0.567	0.545	0.714	0.685	0.521	0.793	0.83	0.965	0.758	0.69	0.895	0.913	1.16	0.86	1.05
NCI-H460	0.331	0.368	0.375	0.37	0.307	0.368	0.344	0.355	0.278	0.263	1.03	1	1.2	1.15	1.28	0.934	0.934	0.977	1.26	1.07
